Data: paper PMC6332446, “Acylphloroglucinol Derivatives from the South African Helichrysum niveum and Their Biological Activities” (Molecules, 2015)

Legend:
[1] = Trolox equivalent absorbance capacity (TEAC) assay; conditions: trolox equivalents; absorbance 734 nm, 25 °C
Description: Trolox Equivalent Absorbance Capacity (TEAC) Assay: The total antioxidant capacity of the test samples in terms of TEAC were measured using a previously described method. Absorbance was read at 734 nm at 25 °C in a plate reader and the results were expressed as μM trolox equivalents per milligram dry weight (μM TE/g DW) of the test samples.

[2] = target: Acetylcholinesterase (AChE) (Homo sapiens, UniProt P22303); assay: biochemical; conditions: 500.00 μg/mL upper concentration limit; read-out: Inhibitory Activities IC50, Acetylcholinesterase (converted)
Description: Acetylcholinesterase Inhibition Assay: Acetylcholinesterase (AChE) inhibitory activity was measured using Ellman’s method as previously described with minor modifications. AChE catalysis the hydrolysis of acetythiocholine iodide (ACTI as substrate) to thiocholine, which can then react with Ellman’s reagent (DTNB) to produce 5-thio-2-nitrobenzoate (yellow color). In the presence of samples (inhibitors), the release of 5-thio-2-nitrobenzoate (yellow color) is reduced and it is monitored by measuring the absorbance at 450 nm.
In a 96-Well plate, the reaction mixture contains 50 µL of samples pre-incubated with 125 µL of 3 mM 5,5ʹ-Dithiobis-(2-nitrobenzoic acid), and 25 µL AChE (2.0 U/mL), in 50 mM tris-HCl buffer (pH 8.0), with 0.1% bovine serum albumin (BSA) for 15 minutes at 25 °C. Subsequently, 25 µL (15 mM) ACTI was added to the incubation mixture and further incubated for 10 min at 25 °C. […] Absorbance was recorded at 450 nm. The percent AChE inhibitory activity is given by: [A0 − (B − C)]/A0 × 100 (3) where A0 = full enzymatic reaction; B = Activity in the presence of sample; and C = Activity without sample.

[3] = ORAC assay, hydroxyl radical absorbance capacity (ORACOH); conditions: trolox equivalents; H2O2 0.3%, Cu2+ 18 μM, 37 °C; ± % STDEV
Description: (§1) Automated Oxygen Radicals Absorbance Capacity (ORAC) Assay: ORAC was measured according to the method previously described. The method measures the antioxidant scavenging capacity for (a) peroxyl radicals generated by thermal decomposition of 2,2ʹ-azobis ([…]) dihydrochloride (AAPH; ORACROO assay); (b) hydroxyl radical (ORACOH assay), generated by H2O2-Cu^2+ (H2O2, 0.3%; Cu^2+ [as CuSO4], 18 μM, or (c) Cu^2+ [as CuSO4], 18 μM as a transition metal oxidant at 37 °C. ORAC values were expressed as micromoles of trolox equivalents (TE) per milligram of test sample, except when Cu^2+ (without H2O2) was used as an oxidant in the assay. In the presence of Cu^2+ without H2O2, test samples acted as prooxidants rather than antioxidants in the ORAC assay. The copper-initiated prooxidant activity was calculated using [(AreaBlank − AreaSample)/AreaBlank] × 100 and expressed as prooxidant units; one unit equals the prooxidant activity that reduces the area under the fluorescein decay curve by 1% in the ORAC assay.

[4] = ORAC assay, peroxyl radical absorbance capacity (ORACROO); conditions: trolox equivalents; AAPH, 37 °C; ± % STDEV
Description: as §1

Rat liver microsomes = conditions: Fe2+-induced, TBARs, samples screened at 50.00 μg/mL, ± STDEV
[5] = Ferric-ion reducing antioxidant power (FRAP) assay; conditions: ascorbic acid equivalents; absorbance 593 nm; ± % STDEV
Description: Ferric-Ion Reducing Antioxidant Power (FRAP) Assay: Working FRAP reagent was prepared in accordance to the method described previously. Absorbance was measured at 593 nm. L-ascorbic acid was used as a standard and the results were expressed as μM ascorbic acid equivalents per milligram dry weight (μM AAE/g DW) of the test samples.

mushroom tyrosinase = assay: Tyrosinase enzyme assay; assay type: biochemical; conditions: L-Tyrosine substrate; samples screened at 100.00 μg/mL upper limit
Description: Tyrosinase Enzyme Assay: The tyrosinase inhibitory activity was measured using the spectrophotometric method previously described. Samples were dissolved in DMSO to a stock solution of 1 mg/mL, and further dilutions were then done with 50 mM sodium phosphate buffer (pH 6.5) for all working solutions. […] In the wells of a 96-well plate, 70 µL of each sample working solution was combined with 30 μL of tyrosinase (500 Units/mL in sodium phosphate buffer) in triplicate. After incubation at room temperature for 5 min, 110 μL of substrate (2 mM L-Tyrosine) was added to each well. Final concentrations of the crude extract, isolated compounds, and positive control ranged from 1.0–100 μg/mL. Incubation commenced for 30 min at room temperature and the enzyme activity was determined by measuring the absorbance at 490 nm. The percentage of tyrosinase inhibition was calculated as follows: Tyrosinase inhibition (%) = [(A − B) − (C − D)]/(A − B) × 100 (1) where A is the absorbance of the control with the enzyme, B is the absorbance of the control without the enzyme, C is the absorbance of the test sample with the enzyme and D is the absorbance of the test sample without the enzyme.

[6] = Copper-initiated prooxidant activity in the ORAC assay; conditions: Cu2+ 18 μM without H2O2, 37 °C; one unit = 1% reduction of area under fluorescein decay curve
Description: as §1

[7] = target: T1, elastase from porcine pancrease (Sus scrofa, UniProt P00772); assay: biochemical; conditions: SANA substrate; samples screened at 100.00 μg/mL upper limit; read-out: Inhibitory Activities IC50, Elastase (converted)
T1 construct: from tissue; host or cells: porcine pancreas
Description: Elastase Inhibition Assay: Inhibition of elastase by the test samples was assayed using N-succyl-(Ala)-3-nitroanilide (SANA) as the substrate, monitoring the release of p-nitroanilide by the method described previously. The inhibitory activity determined the intensity of color released during cleavage of SANA by the action of elastase. Briefly, 1 mM SANA was prepared in 0.1 M Tris-HCl buffer pH 8.0 and 200 μL of this solution was added to the 20 μL of sample solution in a 96-Well plate. The mixtures were vortexed and preincubated for 10 min at 25 °C and then 20 μL of elastase from porcine pancrease (0.03 Units/mL) was added. The mixtures were further incubated for 10 min and the absorbance was measured at 410 nm. Methanol was used as control, while oleanolic acid used as a positive control.

T1 sequence (P00772 27-266): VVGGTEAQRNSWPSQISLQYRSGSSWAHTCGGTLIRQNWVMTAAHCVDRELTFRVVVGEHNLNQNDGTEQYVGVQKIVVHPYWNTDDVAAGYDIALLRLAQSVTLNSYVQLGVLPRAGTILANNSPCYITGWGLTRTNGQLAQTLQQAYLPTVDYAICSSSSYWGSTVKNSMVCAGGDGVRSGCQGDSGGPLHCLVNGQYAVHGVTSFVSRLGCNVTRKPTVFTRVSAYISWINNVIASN
Acetylcholinesterase (AChE), sequence (P22303 32-614, species assumed): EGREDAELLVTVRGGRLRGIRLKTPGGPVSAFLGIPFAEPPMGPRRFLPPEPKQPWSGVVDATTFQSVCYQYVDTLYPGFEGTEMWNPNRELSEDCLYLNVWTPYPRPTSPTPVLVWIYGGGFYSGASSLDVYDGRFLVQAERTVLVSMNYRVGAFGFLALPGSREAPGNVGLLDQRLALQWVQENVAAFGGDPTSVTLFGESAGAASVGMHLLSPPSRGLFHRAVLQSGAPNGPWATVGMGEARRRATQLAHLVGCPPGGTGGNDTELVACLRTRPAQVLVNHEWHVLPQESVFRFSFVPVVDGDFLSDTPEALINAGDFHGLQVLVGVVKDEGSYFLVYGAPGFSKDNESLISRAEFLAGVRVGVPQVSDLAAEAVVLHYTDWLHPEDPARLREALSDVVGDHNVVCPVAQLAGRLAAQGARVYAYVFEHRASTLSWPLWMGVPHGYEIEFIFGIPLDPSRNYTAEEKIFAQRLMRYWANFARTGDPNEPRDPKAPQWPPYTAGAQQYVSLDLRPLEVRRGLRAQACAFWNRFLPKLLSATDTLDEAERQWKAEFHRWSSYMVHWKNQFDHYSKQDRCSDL

CC1(C)CC[C@]2(C)CC=C3[C@](C)(CCC4[C@@]5(C)CC[C@H](O)[C@](C)(CO)C5CC[C@@]34C)C2C1 (stereo partly drawn) [Compound 11, 3β-24-dihydroxyterexer-14-ene]
TEAC [1]: 1323.61 ± 1.76 μM TE/g DW
IC50 [2]: 707 µM
Hydroxyl (ORACOH) [3]: 0.89 ± 7.34 × 10^6 µMTE/g
Peroxyl (ORAC peroxyl radical absorbance capacity) [4]: 1193.10 ± 1.68 µM TE/g
Anti-Lipid peroxidation IC50 (Rat liver microsomes): >50.00 µg/mL
FRAP [5]: 197.99 ± 3.90 µMAAE/g
Inhibitory Activities IC50, Tyrosinase (mushroom tyrosinase): >100.00 µg/mL
Prooxidant (copper-initiated prooxidant activity) [6]: 31.38 ± 7.00 prooxidant units
IC50 [7]: > 226 µM
